Experimental data from patent US20120064513A1, “Cell Sensor, And Monitoring Method Using Same For The Real-Time Monitoring Of Cell Capacitance” (Industry-Acaddemic Cooperation Foundation, Yonsei …, priority 2009, published 2012).

B1: TRAIL: cell death-inducing agent, TRAIL (TNF related apoptosis inducing ligand) (protein, UniProt P50591 1-281, looked up)
Tumor necrosis factor ligand …: MAMMEVQGGPSLGQTCVLIVIFTVLLQSLCVAVTYVYFTNELKQMQDKYSKSGIACFLKEDDSYWDPNDEESMNSPCWQVKWQLRQLVRKMILRTSEETISTVQEKQQNISPLVRERGPQRVAAHITGTRGRSNTLSSPNSKNEKALGRKINSWESSRSGHSFLSNLHLRNGELVIHEKGFYYIYSQTYFRFQEEIKENTKNDKQMVQYIYKYTSYPDPILLMKSARNSCWSKDAEYGLYSIYQGGIFELKENDRIFVSVTNEHLIDMDHEASFFGAFLVG

Test system: HEP1 cell highly expressing CAR (coxsackie and adenovirus receptor)
Experiment: real-time monitoring of cell capacitance with the cell sensor, HEP1 cells
Assay type: cell-based
Source text: The cell sensor 100 is connected to an LCR meter to measure capacitance, thereby monitoring potential changes of the cell 200 in real time. At this time, 10 mV of AC voltage at a frequency of 3 KHz is applied to the cell sensor 100. In this regard, the frequency of AC voltage applied to the cell sensor 100 may vary depending on the gap size between the first electrode 121 and the second electrode 122, and any frequency other than 3 KHz is also possible, as long as it is a low frequency.
A method for monitoring a cell condition in real time using the cell sensor according to the preferred embodiment of the present invention is as follows.
First, the aforementioned cell sensor is fabricated. The fabricated electrode is sterilized using autoclave equipment and ethanol, and then the well made of acryl or PDMS is attached on the electrode for cell culture.
Next, cells grown to a predetermined density are harvested with trypsin-EDTA, and introduced and attached onto the gap area between the electrodes using a pipette.
Subsequently, the cell-loaded electrodes are placed in a 5% CO2 cell culture incubator at 37° C. and incubated for 12 hrs, in order to tightly attach the cells onto the gap between the electrodes. During incubation, the cells are observed under an optical microscope, whether their conditions are suitable for the experiment.
Thereafter, the fluidic channel is mounted onto the electrodes where the cells are tightly attached, and is fixed on the stage of an optical microscope, of which the bottom is maintained at 37° C. Then, a cell culture media and at least one of biomolecules, cell death-inducing agents and metal particles for observation of endocytosis or adsorption is introduced through the inlet of the fluidic channel. […]
During the cell cultivation, capacitance between the first electrode and the second electrode is measured in real time, and thus endocytosis of the biomolecules into the cells through the cell surface receptor or adsorption is monitored in real time.

[1] = HEP1 cells, pretreatment then virus 1*10^5 per chamber

| Molecule | capacitance after the initial peak, virus after pretreatment of the cells [1] | initial capacitance peak on virus endocytosis after pretreatment of the cells [1] | cell capacitance during cell death by cell death-inducing agent (HEP-1 cells, final concentration 50 ng/ml) |
| --- | --- | --- | --- |
| NC(=O)c1ncn([C@@H]2O[C@H](CO)[C@@H](O)[C@H]2O)n1 [Ribavirin] | the capacitance after the peak decreases | the initial peak appears |  |
| B1 |  |  | capacitance decreases during cell death |
